The results in this text go back to patent US20190367868A1, “NEURONS AND COMPOSITIONS AND METHODS FOR PRODUCING THE SAME” (President and Fellows of Harvard College, priority 2015, published 2019).

“And” between values parts separate entries of the source, which are not always exact repeats. Equal entries are not always repeated.

Common to all, as to assay type: cell-based, human
For assay [1], the system named is HUES9-derived motor neurons. The experiment in a line: GCaMP6 Ca2+ imaging after GABA and AMPA application. To be noted: 100 μM, motor neurons cultured for 3 weeks after sphere dissociation. How it is done: Patch-clamp recordings were performed to further understand the electrophysiological characteristics of motor neurons from dissociated spheres.
For Ca^2+ imaging during the GABA switchover experiment cells were transduced with AAV1.Syn.GCaMP6s.WPRE.SV40 4 days after plating. During recording, coverslips were transferred to a perfusion chamber mounted on a Nikon Eclipse TE2000 microscope. Time-lapse recordings were performed at RT at a rate of 1 frame per second. GABA and AMPA were prepared and applied for 10 seconds in the same bath solution as used for electrophysiology. Mean fluorescent intensity of GCaMP6 fluorescence was measured in soma by ImageJ (U.S. National Institutes of Health, available at the world wide web at subdomain //imagej.nih.gov/ij/) and plotted by Igor. The amplitude was normalized to baseline fluorescent level (mean of 5 frames before drug application) for each cell. Background fluorescent level was determined in a cell-free area for each recording and subtracted.

In assay [2] the test system is HUES8-derived cortical neurons. Briefly: phospho-CREB immunocytochemistry after KCl depolarization of dissociated cortical neurons. The source says: (§1) It is well known that synaptic activation through depolarization induces a transcriptional response in neurons (Ebert and Greenberg, 2013; Flavell et al., 2008; Hong et al., 2008; Lin et al., 2008). A key event in many types of neurons, including cortical neurons, is the phosphorylation of the transcription factor CREB. To examine whether neurons from dissociated cortical spheres responded to activation, we depolarized them with KCl.
(§2) Cell cultures were fixed in 4% paraformaldehyde (PFA) in PBS at room temperature (RT) for 20 min, then blocked for 20 min in 5% horse serum (HS) (Gibco) and 0.1% Triton X-100 (Sigma) in PBS. Cells were incubated with primary antibodies overnight at 4° C. Secondary antibodies were applied for 1 hr at room temperature. Whole spheres were cleared using the SeeDB protocol as follows: samples were fixed in 4% PFA and blocked for 24-48 hrs in 0.1% Triton X-100 and 5% HS at 4° C. Samples were then incubated with primary antibodies for 2-3 days at 4° C. in either blocking solution or 10% HS. Samples were washed with PBS 3 times and incubated with secondary antibodies for 3 days in either blocking solution or 10% HS. Following washing with PBS, samples were serially incubated in 20%, 40%, 60%, and 80% (wt/vol) fructose for 6-12 hrs at 25° C. Samples were immersed in 100% (wt/vol) fructose for 24 hrs, followed by SeeDB (115%, wt/vol) for at least 24 hrs at 25° C. All solutions were prepared with H2O and contained 0.5% α-thioglycerol. Samples were stored in SeeDB at 4° C.
The primary antibodies used in this study were raised against PAX6 (Covance), OTX1-2, Ki67, TBR1, SATB2, CTIP2, and ISL1 (Abcam), GLUR1, and ChAT (Millipore), SYNAPSINI (Synaptic System), TUJ1 (Covance), and MAP2 (Lifespan Biosciences). Secondary antibodies were AlexaFluor488, -546, -555, and -647-conjugated antibodies raised against the appropriate species (Invitrogen). Immunocytochemical images were acquired on the Opera High-Content Screening System (PerkinElmer). Immunohistochemical images and Ca^2+ imaging was acquired on the Nikon Eclipse TE2000-S microscope equipped with a heated stage and a humidified chamber with atmospheric control. 3D LSFM was performed on the ZEISS Lightsheet.Z1 Microscope Quantitative image analysis of neuronal cultures was done using PerkinElmer Columbus Image Data Storage and Analysis System v2.3.3.
[…] Neurons were silenced overnight with TTX (Natchannel-blocker) (EMD Bioscience, 1 μM) and AP-V (NMDAR antagonist) (Sigma Aldrich, 100 μM), two compounds that together inhibit any spontaneous activity in cultured neurons. […] Phospho-CREB was detected by immunostaining as described.

In assay [3] the test system is cortical neurons from dissociated cortical spheres. The experiment in a line: qRT-PCR of activity-induced genes after KCl stimulation of cortical neurons. To be noted: KCl-stimulated cortical neurons, by one hour after stimulation.
Text: as §1
Total RNA was isolated using RNeasy mini kit (QIAGEN) and subsequent cDNA synthesis with iSCRIPT (Bio-Rad). qRT-PCR was then performed using SYBER green (Bio-Rad) on a QuantStudio™ 12 K Flex Real-Time PCR System (Life Technologies). Quantitative levels for all genes were normalized to endogenous GAPDH. Expression levels of individual genes were normalized to the levels in undifferentiated human ESC/iPSC of each line. For KCL experiments, expression levels were normalized to the levels in untreated cells.
KCl experiments were performed on spheres at day 20 of differentiation and on dissociated neurons 10 days after dissociation. Neurons were silenced overnight with TTX (Natchannel-blocker) (EMD Bioscience, 1 μM) and AP-V (NMDAR antagonist) (Sigma Aldrich, 100 μM), two compounds that together inhibit any spontaneous activity in cultured neurons. […] Phospho-CREB was detected by immunostaining as described.
Background: In qPCR the cycle at which signal appears reflects the starting amount.

In assay [4] the test system is dissociated neurons from motor neuron spheres. The experiment in a line: phospho-CREB immunocytochemistry after KCl depolarization of motor neurons. How it is done:
When stimulated with sonic hedgehog and retinoic acid at the proper doses and time points, differentiating cells within the spheres adopt the motor neuron fate and can be dissociated and replated without glial feeder layers.
as §2, with “All solutions were prepared with H2O and contained 0.5% α-thioglycerol. Samples were stored in SeeDB at 4° C.” left out
KCl experiments were performed on spheres at day 20 of differentiation and on dissociated neurons 10 days after dissociation. […] Phospho-CREB was detected by immunostaining as described.

With `Cc1o[nH]c(=O)c1CC(N)C(=O)O` (centres unmarked) [AMPA], the “intracellular Ca2+ response (GCaMP6 fluorescence)” value in assay [1] is “responded”.
Take `[Cl-].[K+]` [KCl]: the “relative proportion of neurons positive for phospho-CREB, 30 min KCl” value in assay [2] (HUES8-derived cortical neurons 20 days after dissociation, KCl (60 mM) for 30 min, replicates and average of three independent experiments) is 45% and 35% and 38%. For the same compound, in assay [2] (HUES8-derived cortical neurons 20 days after dissociation, KCl (60 mM) for 1 hr, replicates and average of three independent experiments), the “relative proportion of neurons positive for phospho-CREB, 1 hr KCl” value was 38% and 34% and 32%. The “relative proportion of neurons positive for phospho-CREB, 6 hr KCl” value in assay [2] (HUES8-derived cortical neurons 20 days after dissociation, KCl (60 mM) for 6 hrs, replicates and average of three independent experiments) is 29% (2×) and 36%. In assay [2] (neurons from dissociated cortical spheres depolarized with KCl), the “phosphorylation of CREB after depolarization” value is recorded as “robust phosphorylation of CREB”. The “transcription of the early-induced genes NPAS4, cFOS, and ARC” value in assay [3] is recorded as “increased transcription”. In assay [4], the “phosphorylation of CREB in motor neurons after KCl depolarization” value is listed as “phosphorylation of CREB”.
In the case of `NCCCC(=O)O` [GABA], in assay [1], the “intracellular Ca2+ response (GCaMP6 fluorescence)” value is recorded as “responded”.
